The test system of this series is CCRIS mutagenicity, Ames/micronucleus/aberration tests. As to the kind of experiment: CCRIS mutagenicity studies.
Setting [1] is: Test System: AMES SALMONELLA TYPHIMURIUM, Strain/Indicator: TA100, Metabolic Activation: NONE, Method: PREINCUBATION

Activity calls are given as the source filed them. No rule for the calls is given here.

Take `C[C@]12CCC(=O)C=C1CC[C@@H]1[C@@H]2CC[C@]2(C)C(=O)CC[C@@H]12`: the mutagenic call by setting is: (End Point: In vivo micronucleus, Test System: Micronucleated bone marrow polychromatic erythrocytes, Species: Rat, Strain/Sex: F344/N / Male, Route: Oral) “inactive; negative”; (End Point: In vivo micronucleus, Test System: Micronucleated normochromatic erythrocytes in peripheral blood, Species: Mouse, Strain/Sex: B6C3F1/Female, Route: Oral) “inactive; negative. (the response was judged equivocal based on a statistically significan”; (End Point: In vivo micronucleus, Test System: Micronucleated normochromatic erythrocytes in peripheral blood, Species: Mouse, Strain/Sex: B6C3F1/Male, Route: Oral) “inactive; negative”; (Test System: Ames Salmonella typhimurium, Strain/Indicator: TA97, Metabolic Activation: Hamster, Liver, S-9, Aroclor 1254 (10%), Method: Preincubation) “inactive; negative”; (Test System: Ames Salmonella typhimurium, Strain/Indicator: TA97, Metabolic Activation: Hamster, Liver, S-9, Aroclor 1254 (30%), Method: Preincubation) “inactive; negative”; (Test System: Ames Salmonella typhimurium, Strain/Indicator: TA97, Metabolic Activation: None, Method: Preincubation) “inactive; negative”. Moreover, the mutagenic call runs as follows: (Test System: Ames Salmonella typhimurium, Strain/Indicator: TA97, Metabolic Activation: Rat, Liver, S-9, Aroclor 1254 (10%), Method: Preincubation) “inactive; negative”; (Test System: Ames Salmonella typhimurium, Strain/Indicator: TA97, Metabolic Activation: Rat, Liver, S-9, Aroclor 1254 (30%), Method: Preincubation) “inactive; negative”; (Test System: Ames Salmonella typhimurium, Strain/Indicator: TA98, Metabolic Activation: Hamster, Liver, S-9, Aroclor 1254 (10%), Method: Preincubation) “inactive; negative”; (Test System: Ames Salmonella typhimurium, Strain/Indicator: TA98, Metabolic Activation: Hamster, Liver, S-9, Aroclor 1254 (30%), Method: Preincubation) “inactive; negative”; (Test System: Ames Salmonella typhimurium, Strain/Indicator: TA98, Metabolic Activation: None, Method: Preincubation) “inactive; negative”; (Test System: Ames Salmonella typhimurium, Strain/Indicator: TA98, Metabolic Activation: Rat, Liver, S-9, Aroclor 1254 (10%), Method: Preincubation) “inactive; negative”. For the same molecule, the mutagenic call was “inactive; negative” (Test System: Ames Salmonella typhimurium, Strain/Indicator: TA98, Metabolic Activation: Rat, Liver, S-9, Aroclor 1254 (30%), Method: Preincubation); “inactive; negative” (Test System: Ames Salmonella typhimurium, Strain/Indicator: TA100, Metabolic Activation: Hamster, Liver, S-9, Aroclor 1254 (10%), Method: Preincubation); “inactive; negative” (Test System: Ames Salmonella typhimurium, Strain/Indicator: TA100, Metabolic Activation: Hamster, Liver, S-9, Aroclor 1254 (30%), Method: Preincubation); “inactive; negative” (Test System: Ames Salmonella typhimurium, Strain/Indicator: TA100, Metabolic Activation: None, Method: Preincubation); “inactive; negative” (Test System: Ames Salmonella typhimurium, Strain/Indicator: TA100, Metabolic Activation: Rat, Liver, S-9, Aroclor 1254 (10%), Method: Preincubation); “inactive; negative” (Test System: Ames Salmonella typhimurium, Strain/Indicator: TA100, Metabolic Activation: Rat, Liver, S-9, Aroclor 1254 (30%), Method: Preincubation). Besides, the mutagenic call (Test System: Ames Salmonella typhimurium, Strain/Indicator: TA1535, Metabolic Activation: Hamster, Liver, S-9, Aroclor 1254 (10%), Method: Preincubation) was “inactive; negative”; the mutagenic call (Test System: Ames Salmonella typhimurium, Strain/Indicator: TA1535, Metabolic Activation: Hamster, Liver, S-9, Aroclor 1254 (30%), Method: Preincubation) was “inactive; negative”; the mutagenic call (Test System: Ames Salmonella typhimurium, Strain/Indicator: TA1535, Metabolic Activation: None, Method: Preincubation) was “inactive; negative”; the mutagenic call (Test System: Ames Salmonella typhimurium, Strain/Indicator: TA1535, Metabolic Activation: Rat, Liver, S-9, Aroclor 1254 (10%), Method: Preincubation) was “inactive; negative”; the mutagenic call (Test System: Ames Salmonella typhimurium, Strain/Indicator: TA1535, Metabolic Activation: Rat, Liver, S-9, Aroclor 1254 (30%), Method: Preincubation) is “inactive; negative”; the mutagenic call (Test System: E. coli, Strain/Indicator: WP2 uvrA/pKM101, Metabolic Activation: None, Method: Preincubation) was “inactive; negative”. Moreover, the mutagenic call (Test System: E. coli, Strain/Indicator: WP2 uvrA/pKM101, Metabolic Activation: Rat, Liver, S-9, Aroclor 1254 (10%), Method: Preincubation) is “inactive; negative”.

Turning to `Cc1noc(NS(=O)(=O)c2ccc(N)cc2)c1C`, the mutagenic call by setting is: (End Point: IN VITRO CHROMOSOMAL ABERRATIONS, Test System: CHO CELLS, Metabolic Activation: NONE) “inactive; negative”; (End Point: IN VITRO CHROMOSOMAL ABERRATIONS, Test System: CHO CELLS, Metabolic Activation: RAT, LIVER, S-9, AROCLOR 1254) “inactive; negative”; (Test System: AMES SALMONELLA TYPHIMURIUM, Strain/Indicator: TA97, Metabolic Activation: HAMSTER, LIVER, S-9, AROCLOR 1254 (10 OR 30%), Method: PREINCUBATION) “inactive; negative”; (Test System: AMES SALMONELLA TYPHIMURIUM, Strain/Indicator: TA97, Metabolic Activation: NONE, Method: PREINCUBATION) “inactive; negative”; (Test System: AMES SALMONELLA TYPHIMURIUM, Strain/Indicator: TA97, Metabolic Activation: RAT, LIVER, S-9, AROCLOR 1254 (10 OR 30%), Method: PREINCUBATION) “inactive; negative”; (Test System: AMES SALMONELLA TYPHIMURIUM, Strain/Indicator: TA98, Metabolic Activation: HAMSTER, LIVER, S-9, AROCLOR 1254 (10 OR 30%), Method: PREINCUBATION) “inactive; negative”. Also, the mutagenic call by setting is: (Test System: AMES SALMONELLA TYPHIMURIUM, Strain/Indicator: TA98, Metabolic Activation: NONE, Method: PREINCUBATION) “inactive; negative”; (Test System: AMES SALMONELLA TYPHIMURIUM, Strain/Indicator: TA98, Metabolic Activation: RAT, LIVER, S-9, AROCLOR 1254 (10 OR 30%), Method: PREINCUBATION) “inactive; negative”; (Test System: AMES SALMONELLA TYPHIMURIUM, Strain/Indicator: TA100, Metabolic Activation: HAMSTER, LIVER, S-9, AROCLOR 1254 (10 OR 30%), Method: PREINCUBATION) “inactive; negative”; under setting [1], “inactive; negative”; (Test System: AMES SALMONELLA TYPHIMURIUM, Strain/Indicator: TA100, Metabolic Activation: RAT, LIVER, S-9, AROCLOR 1254 (10 OR 30%), Method: PREINCUBATION) “inactive; negative”; (Test System: AMES SALMONELLA TYPHIMURIUM, Strain/Indicator: TA1535, Metabolic Activation: HAMSTER, LIVER, S-9, AROCLOR 1254 (10 OR 30%), Method: PREINCUBATION) “inactive; negative”. Also, the mutagenic call runs as follows: (Test System: AMES SALMONELLA TYPHIMURIUM, Strain/Indicator: TA1535, Metabolic Activation: NONE, Method: PREINCUBATION) “inactive; negative”; (Test System: AMES SALMONELLA TYPHIMURIUM, Strain/Indicator: TA1535, Metabolic Activation: RAT, LIVER, S-9, AROCLOR 1254 (10 OR 30%), Method: PREINCUBATION) “inactive; negative”; (Test System: E. COLI, Strain/Indicator: WP2 UVRA, Metabolic Activation: HAMSTER, LIVER, S-9, AROCLOR 1254, Method: STANDARD PLATE) “inactive; negative”; (Test System: E. COLI, Strain/Indicator: WP2 UVRA, Metabolic Activation: HAMSTER, LIVER, S-9, Method: STANDARD PLATE) “inactive; negative”; (Test System: E. COLI, Strain/Indicator: WP2 UVRA, Metabolic Activation: MOUSE, LIVER, S-9, AROCLOR 1254, Method: STANDARD PLATE) “inactive; negative”; (Test System: E. COLI, Strain/Indicator: WP2 UVRA, Metabolic Activation: MOUSE, LIVER, S-9, Method: STANDARD PLATE) “inactive; negative”. The mutagenic call (Test System: E. COLI, Strain/Indicator: WP2 UVRA, Metabolic Activation: NONE, Method: STANDARD PLATE) is “inactive; negative”; the mutagenic call (Test System: E. COLI, Strain/Indicator: WP2 UVRA, Metabolic Activation: RAT, LIVER, S-9, AROCLOR 1254, Method: STANDARD PLATE) is “inactive; negative”; the mutagenic call (Test System: E. COLI, Strain/Indicator: WP2 UVRA, Metabolic Activation: RAT, LIVER, S-9, Method: STANDARD PLATE) is “inactive; negative”.

For `C=C(Br)C(=O)O`, the mutagenic call is “inactive; negative” under setting [1] and “inactive; negative” (Test System: AMES SALMONELLA TYPHIMURIUM, Strain/Indicator: TA100, Metabolic Activation: RAT, LIVER, MICROSOMES, Method: PREINCUBATION).

Regarding `C=C1C[C@@H]2CC[C@]34C[C@@H]5O[C@@H]6[C@H](O[C@H]7CC[C@H](CC(=O)O[C@@H]8[C@H](C)[C@@H]9O[C@@H]%10C[C@]%11(C[C@@H]%12O[C@@]%13(C[C@H](C)[C@@H]%12O%11)C[C@H](C)[C@@H]%11O[C@@H]([C@@H](O)C[C@H](O)CO)C[C@H]%11O%13)O[C@@H]%10C[C@@H]9O[C@H]8C[C@@H]8O[C@H](CC[C@@H]1O2)C[C@H](C)C8=C)O[C@@H]7[C@H]6O3)[C@H]5O4`, the mutagenic call by setting is: (Test System: Mouse lymphoma, Strain/Indicator: L5178Y (tk+/tk-), Metabolic Activation: None, Method: Suspension/plate) “inactive; negative”; (Test System: Mouse lymphoma, Strain/Indicator: L5178Y (tk+/tk-), Metabolic Activation: Rat, Liver, S-9, Aroclor 1254, Method: Suspension/plate) “active; equivocal (previous evaluation positive)”.

Values taken from PubChem BioAssay AID1259407 (Chemical Carcinogenesis Research Information System (CCRIS), 2018).
